Test system: MARCKS phosphorylation in NHBE cells
Test: MARCKS phosphorylation in NHBE cells, radiolabeled immunoprecipitation assay
Type: cell-based, human
Conditions: 100 nM PMA, NHBE cells
Description: Radiolabeled Immunoprecipitation Assay—When labeling with [^32P]phosphate, cells were preincubated for 2 h in phosphate-free Dulbecco's modified Eagle's medium containing 0.2% bovine serum albumin and then labeled with 0.1 mCi/ml [^32P]orthophosphate (9000 Ci/mmol, PerkinElmer Life Sciences) for 2 h. For labeling with [^3H]myristic acid or 3H-amino acids, cells were incubated overnight in medium containing 50 μCi/ml [^3H]myristic acid (49 Ci/mmol, PerkinElmer Life Sciences) or 0.2 mCi/ml [^3H]leucine (159 Ci/mmol, PerkinElmer Life Sciences) plus 0.4 mCi/ml [^3H]proline (100 Ci/mmol, PerkinElmer Life Sciences). Following labeling, cells were exposed to stimulatory reagents for 5 min. When an inhibitor was used, cells were preincubated with the inhibitor for 15 min prior to stimulation. At the end of the treatments, cells were lysed in a buffer containing 50 mM Tris-HCl (pH 7.5), 150 mM NaCl, 1 mM EDTA, 10% glycerol, 1% Nonidet P-40, 1 mM phenylmethylsulfonyl fluoride, 1 mM benzamidine, 10 μg/ml pepstatin A, and 10 μg/ml leupeptin. Trichloroacetic acid precipitation and scintillation counting may determine the radiolabeling efficiency in each culture. Immunoprecipitation of MARCKS protein was carried out according to the method of Spizz and Blackshear using cell lysates containing equal counts/min. Spizz et al., J. Biol. Chem. 271, 553-562 (1996). Precipitated proteins were resolved by 8% SDS-polyacrylamide gel electrophoresis and visualized by autoradiography. Anti-human MARCKS antibody (2F12) and nonimmune control antibody (6F6) were used in this assay.
To assess MARCKS or MARCKS-associated protein complexes in different subcellular fractions, radiolabeled and treated cells were scraped into a homogenization buffer (50 mM Tris-HCl (pH 7.5), 10 mM NaCl, 1 mM EDTA, 1 mM phenylmethylsulfonyl fluoride, 1 mM benzamidine, 10 μg/ml pepstatin A, 10 μg/ml leupeptin) and then disrupted by nitrogen cavitation (800 pounds/square inch for 20 min at 4° C.). Cell lysates were centrifuged at 600×g for 10 min at 4° C. to remove nuclei and unbroken cells. Post-nuclear supernatants were separated into membrane and cytosol fractions by ultracentrifugation at 400,000×g for 30 min at 4° C. The membrane pellet was solubilized in the lysis buffer by sonication. Immunoprecipitation was then carried out as described above.

CCCCCCCCCCCCCC(=O)O[C@@H]1[C@@H](C)[C@@]2(O)[C@@H](C=C(CO)C[C@]3(O)C(=O)C(C)=C[C@@H]23)[C@@H]2C(C)(C)[C@]12OC(C)=O [PMA, phorbol 12-myristate 13-acetate]
increase in MARCKS phosphorylation: 3-4 fold
